One compound from US20080241215A1, “LOCAL VASCULAR DELIVERY OF PROBUCOL ALONE OR IN COMBINATION WITH SIROLIMUS TO TREAT RESTENOSIS, VULNERABLE PLAQUE, AAA AND STROKE” (priority 2007, published 2008) can be followed below.

Assay [1] relates to patients undergoing coronary angioplasty. Briefly: MVP randomized clinical trial (angiographic and clinical endpoints). Format: in vivo, human. The source says: In addition, the invention enables the skilled practitioner to use probucol in conjunction with other percutaneous coronary interventions such as stenting if it is deemed appropriate. The present invention concerns the IVUS substudy from the MVP restenosis trial. MVP was a double-blind placebo-controlled randomized clinical trial with four study groups. The protocol was approved by the Montreal Heart Institute institutional review board. The MVP study design, inclusion and exclusion criteria have been previously described (N Engl J Med 1997; 365-372). Briefly, patients referred for elective coronary angioplasty were evaluated at least 30 days prior to their scheduled procedure. Eligible patients were asked to provide written informed consent. Patients were eligible if they were scheduled to undergo standard balloon angioplasty on at least one native coronary artery and had at least one de novo target lesion with luminal narrowing of fifty percent or more by caliper measurements. Beginning thirty days prior to scheduled angioplasty, patients were randomly assigned to receive either probucol alone, multivitamins alone, the combination of probucol and multivitamins, or placebo. Probucol 500 mg or matched placebo was administered twice daily. The multivitamin complex, consisting of vitamin E 700 IU, vitamin C 500 mg and beta-carotene 30,000 IU, or matched placebo was also administered in one tablet twice daily. […] Balloon angioplasty was performed according to standard techniques. […] The sequence of contrast injections with the exact degree of angulation was recorded and used for every angiogram. Coronary arteriograms (pre-, post-procedure, and final follow-up) were analyzed together using the Coronary Measurement System (CMS), as previously reported. Patient follow-up included clinical evaluation, exercise treadmill testing, blood chemistry, pill count and drug level measurements, and dietary assessment and intervention. Patients were readmitted for follow-up coronary angiography at five to seven months. Patients in whom arteriography was performed for clinical reasons before the fifth month returned for repeat angiographic examination at five to seven months if no definite angiographic restenosis was present on at least one dilated site. During follow-up, patients with recurrence or exacerbation of anginal symptoms were treated with medical therapy or revascularization procedures (reangioplasty or Coronary Bypass Surgery) as clinically indicated. Patients with angiographic restenosis (lesion>50%. at follow-up) without clinical evidence of ischemia were not subjected to further interventional procedures.

The next assay relates to LDL. Description: LDL peroxidation lag phase ex vivo (diene conjugates after addition of copper ions). Format: biochemical, human. Particulars: treatment for one month; compared with vitamins alone or the combination of probucol and vitamins; preliminary results.
In assay [2] the test system is coronary arteries (angioplasty site). Description: IVUS substudy of the MVP restenosis trial. It counts as in vivo, human. Particulars: for EEM area / Lumen area / Wall area: per segment, mean ± SD. The method, then:
The present invention concerns the IVUS substudy from the MVP restenosis trial. MVP was a double-blind placebo-controlled randomized clinical trial with four study groups. The protocol was approved by the Montreal Heart Institute institutional review board. The MVP study design, inclusion and exclusion criteria have been previously described (N Engl J Med 1997; 365-372). Briefly, patients referred for elective coronary angioplasty were evaluated at least 30 days prior to their scheduled procedure. Eligible patients were asked to provide written informed consent. Patients were eligible if they were scheduled to undergo standard balloon angioplasty on at least one native coronary artery and had at least one de novo target lesion with luminal narrowing of fifty percent or more by caliper measurements.
Beginning thirty days prior to scheduled angioplasty, patients were randomly assigned to receive either probucol alone, multivitamins alone, the combination of probucol and multivitamins, or placebo. Probucol 500 mg or matched placebo was administered twice daily. The multivitamin complex, consisting of vitamin E 700 IU, vitamin C 500 mg and beta-carotene 30,000 IU, or matched placebo was also administered in one tablet twice daily. All patients received an extra dose of probucol 1000 mg and/or vitamin E 2000 IU and/or matched placebos twelve hours before angioplasty, according to randomization assignment. […] All patients received aspirin 325 mg daily started at least thirty days before procedure and continued for the study period. Balloon angioplasty was performed according to standard techniques. Intracoronary nitroglycerin (0.3 mg) was given for each target artery for both pre- and post-dilatation angiography and at follow-up. The sequence of contrast injections with the exact degree of angulation was recorded and used for every angiogram. Coronary arteriograms (pre-, post-procedure, and final follow-up) were analyzed together using the Coronary Measurement System (CMS), as previously reported. Patient follow-up included clinical evaluation, exercise treadmill testing, blood chemistry, pill count and drug level measurements, and dietary assessment and intervention. Patients were readmitted for follow-up coronary angiography at five to seven months. Patients in whom arteriography was performed for clinical reasons before the fifth month returned for repeat angiographic examination at five to seven months if no definite angiographic restenosis was present on at least one dilated site. During follow-up, patients with recurrence or exacerbation of anginal symptoms were treated with medical therapy or revascularization procedures (reangioplasty or Coronary Bypass Surgery) as clinically indicated. Patients with angiographic restenosis (lesion>50%. at follow-up) without clinical evidence of ischemia were not subjected to further interventional procedures.
IVUS examinations were performed using 30 MHZ, 3.5 French mechanical (1800 rpm) ultrasound catheters (Boston Scientific, Natick, Mass.) and a dedicated imaging console (Hewlett Packard, Andover, Mass.) (Curr Opin Cardiol 1994; 9:627-633). In six patients, both examinations were performed using 20 MHZ, 3.5 French 64-element IVUS catheters (Endosonics, Pleasanton, Calif.). IVUS studies were first performed after coronary angioplasty (after final balloon inflation) and then after follow-up angiography (before any subsequent intervention) and were always preceded by administration of intracoronary nitroglycerin (0.3 mg). IVUS imaging was monitored by an experienced cardiologist, but the angioplasty operator was blinded to ultrasound results to avoid altering standard balloon angioplasty practice. The IVUS catheter was advanced distal to the dilated site to an easily recognizable landmark, most often a side branch, which was noted and used for follow-up IVUS examination. One angiographic view was recorded on videotape before beginning pullback of the IVUS catheter. […]

Where [3] appears, read: probucol given alone, compared to placebo.
The mark [4] stands for this setting: Follow-up Post PTCA (follow-up minus after angioplasty), listed as Probucol Alone.
Where [5] appears, read: Follow-up Post PTCA, efficacy analysis in compliant patients.
Setting [6] is: Follow-up, listed as Probucol Alone.

Each structure is given as a SMILES string.

Consider `CC(C)(Sc1cc(C(C)(C)C)c(O)c(C(C)(C)C)c1)Sc1cc(C(C)(C)C)c(O)c(C(C)(C)C)c1` [probucol, 4,4′-([1-methylethylidene)bis(thio)]bis-[2,6-bis(1,1-dimethylethyl)phenol]], for which the patients with restenosis entry in assay [1] (MVP study) was “over twenty”. Also, the “reduction in the need for repeat angioplasty” value in assay [1] (probucol given alone, at 6 month, compared to placebo) is “fifty-eight”. For the same compound, in assay [1] (setting [3]), the “reduction in angiographic lumen loss” value was “sixty-eight” and the “reduction in restenosis rate per segment” value is listed as “forty-seven”. Moreover, in the assay with LDL, the “protection against LDL oxidation (lag phase for LDL peroxidation)” value is “significantly greater protection against LDL oxidation”. Besides, in assay [2] (After Angioplasty), the EEM area was 12.20 ± 4.66 mm^2, the Lumen area stood at 4.62 ± 1.59 mm^2 and the Wall area is recorded as 7.57 ± 3.98 mm^2. In addition, the “Lumen area, change” value in assay [2] (Follow-up Post PTCA (follow-up minus after angioplasty)) is −0.15 ± 1.70 mm^2. Moreover, in assay [2] (setting [4]), the “EEM area, change” value was found to be 1.74 ± 1.80 mm^2 and the “Wall area, change” value was 1.89 ± 1.87 mm^2. Further, in assay [2] (Follow-up Post PTCA (follow-up minus after angioplasty), listed as probucol alone), the “EEM area, change” value was found to be 1.74 mm^2. Also, in assay [2] (setting [5]), the “EEM area, change” value is on record as 1.74 ± 1.80 mm^2; the “Lumen area, change” value is reported as −0.15 ± 1.70 mm^2; the “Wall area, change” value stood at 1.89 ± 1.87 mm^2. Besides, in assay [2] (setting [6]), the EEM area is listed as 13.93 ± 4.74 mm^2, the Lumen area is 4.47 ± 1.93 mm^2 and the Wall area was determined as 9.46 ± 4.36 mm^2. Besides, the “patients with an increase in EEM area of at least 1 mm^2 at follow-up” value in assay [2] (in vivo) came out at 72.0%. Moreover, the “increase in vessel enlargement” value in assay [2] (probucol only compared with placebo) is on record as “seven hundred-thirty”.
